In this experiment the test system is Kras protein in H1299 cells. As to the kind of experiment: Western blot of Kras protein in H1299 cells. The format is cell-based, human. Particulars: H1299, 10 and 20 μM 7773, 48 hours. On the procedure: Western blots were performed as described. For fluorescent westerns, cell lysates were prepared with phosphatase inhibitors (β-Glycerophosphate and Sodium orthovanadate) and a protease inhibitor (cOmplete™, Mini Protease Inhibitor Cocktail, Roche 04693124001), membranes were read using a Li-Core Odyssey laser scanner, and results analysed using Image Studio Lite software.
The following primary antibodies were used: mouse anti-total ERK (p44/42 MAPK (Erk1/2) L34 F12 Cell Signalling 4696s), mouse anti-Kras (CPTC-KRAS4B-2, DSHB) rabbit anti-dpERK, (p44/42 MAPK, Cell Signalling 4370), rabbit anti-alpha/beta tubulin (Cell Signalling 2148), goat anti-rabbit IgG-HRP (Jackson), goat anti-mouse IgG-HRP (Jackson). Secondary antibodies for fluorescent westerns: donkey anti-mouse 800 (Rockland 610–732-124), goat anti-rabbit 680 (Molecular Probes A21076).

Take `O=C(c1ccc(Cn2cnnn2)cc1)N1CCCC(Nc2ccc3c(c2)OCO3)C1` (stereo not shown) [compound 7773]: the Kras protein level result is reported as “dose-dependent reduction”.

These data come from PMC8794255, “Small molecule inhibitor of Igf2bp1 represses Kras and a pro-oncogenic phenotype in cancer cells” (RNA Biology, 2021).
